The source of these data is US20060247416A1, “HIV gp41 HR2-derived synthetic peptides, and their use in therapy to inhibit transmission of human immunodeficiency virus” (priority 2004, published 2006).

One data set relates to HIV-1LAI. The settings on record: Lawless et al., 1996; cited from earlier work.
For data set [1] the following is noted: 10 mg/ml in PBS, about pH 7.3 to about pH 7.5, 37° C., after several hours.
Experimental: Each was individually tested for stability in aqueous solution by adding the peptide at a concentration of 10 mg/ml to phosphate-buffered saline (PBS), and by measuring (e.g., by HPLC) at different time points over a period of 1 week (168 hours) the amount of peptide remaining in solution at a range of about pH 7.3 to about pH 7.5 at 37° C.
The test system of another data set is HIV-1. The following applies: regimen of antiviral agents containing T20 versus same regimen without T20; cited from earlier work.

With enfuvirtide, the “EC50 against HIV-1LAI” value in the data set on HIV-1LAI was 0.5 ng/mL. Besides, the “stability in aqueous solution” value in data set [1] is reported as “minimal to no peptide detected in solution”. Besides, in the data set with HIV-1, the HIV-1 viral load result is reported as “significantly reduces” and the “circulating CD4+ cell population” value is on record as “significantly increases”.
